# Experimental data reported in patent US20150352196A1, “Methods and Pharmaceutical Compositions for Prevention of Aging-Related Lesions” (INSERM (INSTITUT NATIONAL DE LA SANTÉ ET DE LA RECHERCHE …, priority 2012, published 2015).
# Assays:
# Format in all cases: cell-based
# [1] = system: mouse smooth muscle cells; assay: mitogenic effect of IGF-1 on mouse smooth muscle cells in vitro; details: IGF-1 stimulated
# [2] = system: PI3kinase/Akt pathway; assay: FOXO reporter in transfected HEK cells exposed to IGF-1; details: HEK cells transfected with FOXO reporter
# Source text: In addition, the inventors transfected HEK cells by a FOXO reporter measuring the activity of the Pl3kinase/Akt pathway downstream of IGF-1 receptor.
# [3] = system: calpain; assay: calpain activity assays in cell lines expressing IGF-1 receptor after exposure to IGF-1; details: including immortalized podocytes
# Source text: Inventors first focused their work on somatotropic axis and particularly IGF-1 receptor role in calpain activation. […] Calpain activity assays developed in the laboratory have been performed in several cell lines expressing IGF-1 receptor (podocyte lines, splenocytes, mesangial cells) after exposure to IGF-1.
Substance,mitogenic effect of IGF-1 [1],activity of the PI3kinase/Akt pathway downstream of IGF-1 receptor (FOXO reporter) [2],calpain activity [3]
"(2Z)-3-(4-iodophenyl)-2-mercapto-2-Propenoic acid, 3-(4-iodophenyl)-2-mercapto-(Z)-2-propenoic acid [PD-150606]",blunted partly but significantly,inhibited significantly,–
"IGF-1: ligand of the IGF-1 receptor, somatotropic axis; used to stimulate cell lines",–,–,increase calpain activity in a dose- and time-dependent manner
